Measurements reported in US8895605B2, “Pyrrolidine-substituted flavones as radio-sensitizers for use in the treatment of cancer” (Piramal Enterprises Limited, priority 2009, dated 2014).

Tested on: FaDu cell line
Test: In-vitro clonogenic assay (Compound A alone and with radiation)
Format: cell-based, human
Details: for Number of colonies 72 h after Compound A treatment / Number of colonies 96 h after Compound A treatment: 1500 cells/plate; for Number of colonies 72 h after Compound A treatment: control 138 colonies; for Number of colonies 96 h after Compound A treatment: control 185 colonies
Method: The assay has been carried out according to the method described in Radiotherapy and Oncology, 2004, 71, 213-221; the disclosure of which is incorporated by reference for the teaching of the assay. The Fa-Du cells from exponential phase cultures were harvested by trypsinization, counted and plated at a cell density of 1500 cells/well in six-well plate and four identical groups were made. First group served as control that was untreated. Different wells of the second and third group, 24 h after seeding were irradiated at room temperature at dose of 2, 4, 6, 8 and 10 Gy respectively. The third group was further treated, 24 h after irradiation (i.e. on the third day of the experiment) with IC50 concentration of Compound A. The fourth group was treated on the third day of the experiment with IC50 concentration of Compound A alone. After completion of 72 h and 96 h respectively, the medium was changed for all the wells and the plates incubated for a total period of 12-14 days from the first day of the experiment (i.e. the cell seeding day) to allow sufficient time for the cells to form colonies of at least 50 cells. The medium was aspirated and colonies were fixed with methanol and acetic acid mixture in the proportion of 2:1. The fixation procedure was repeated after rinsing with water. The plates were dried and colonies stained with 0.1% crystal violet for 5 min. The wells were finally rinsed with water and dried. […] FIG. 3 and FIG. 4 show the visual enhancement in the radiation response by 1 μM dose of Compound A, in FaDu cell line (Seeding density: 1500 cells/plate).

[1] = 1 μM Compound A (IC50) alone, no radiation
[2] = 2 Gy radiation, then 1 μM Compound A 24 h after radiation
[3] = 4 Gy radiation, then 1 μM Compound A 24 h after radiation
[4] = 6 Gy radiation, then 1 μM Compound A 24 h after radiation
[5] = 8 Gy radiation, then 1 μM Compound A 24 h after radiation
[6] = 10 Gy radiation, then 1 μM Compound A 24 h after radiation

## CN1CC[C@@H](c2c(O)cc(O)c3c(=O)cc(-c4ccccc4Cl)oc23)[C@@H]1CO.Cl [Compound A, (+)-trans-2-(2-Chlorophenyl)-5,7-dihydroxy-8-(2-hydroxymethyl-1-methyl-pyrrolidin-3-yl)-chromen-4-one hydrochloride]
[1]
  Number of colonies 72 h after Compound A treatment: 38
  Number of colonies 96 h after Compound A treatment: 36
1 μM Compound A for both 72 h and 96 h, at both 4 and 6 Gy, 1500 cells/well
  Radiation response in clonogenic assay: enhanced the radiation response
[2]
  Number of colonies 72 h after Compound A treatment: 45
  Number of colonies 96 h after Compound A treatment: 40
[3]
  Number of colonies 72 h after Compound A treatment: 18
  Number of colonies 96 h after Compound A treatment: 17
[4]
  Number of colonies 72 h after Compound A treatment: 7
  Number of colonies 96 h after Compound A treatment: 6
[5]
  Number of colonies 72 h after Compound A treatment: 0
  Number of colonies 96 h after Compound A treatment: 2
[6]
  Number of colonies 72 h after Compound A treatment: 0
  Number of colonies 96 h after Compound A treatment: 0
